From ChEMBL document CHEMBL4411300 (Eur J Med Chem, 2019)
Active and inactive are the calls of the source. The rule behind the calls is not given here.

Key:
Trypanosoma cruzi [1] = assay: Trypanocidal activity against Trypanosoma cruzi MHOM/Pe/2011/Arequipa DTU 5 amastigotes infected in African green monkey Vero cells assessed as infected cells at 50 uM after 72 hrs by Giemsa-staining based assay relative to control; assay type: functional
[2] = Cardiotoxicity in Balb/c mouse infected with Trypanosoma cruzi MHOM/Pe/2011/Arequipa DTU 5 trypomastigotes assessed as change in ratio of creatine kinase in muscle to brain at 20 mg/kg, po once daily for 5 consecutive days starting from day 75 post infection measured on day 81 post infection (reference value: 751 U/L); assay type: toxicity, organism-based; details: in vivo
[3] = Cardiotoxicity in Balb/c mouse infected with Trypanosoma cruzi MHOM/Pe/2011/Arequipa DTU 5 trypomastigotes assessed as change in serum LDH level at 20 mg/kg, po once daily for 5 consecutive days starting from day 75 post infection measured on day 127 post infection (reference value: 6679 U/L); assay type: toxicity, organism-based; details: in vivo
[4] = (§1) Hepatotoxicity in Balb/c mouse infected with Trypanosoma cruzi MHOM/Pe/2011/Arequipa DTU 5 trypomastigotes assessed as decrease in ratio of serum AST to GOT level at 20 mg/kg, po once daily for 5 consecutive days starting from day 10 post infection measured on day 16 post infection relative to control; assay type: toxicity, organism-based; design: scale not given: the % may be the effect or the level left; details: in vivo
[5] = as §1, with “increase” for “decrease”, “ALT” for “AST”, “GPT” for “GOT”, “75” for “10”, “127” for “16”; assay type: toxicity, organism-based; details: in vivo
[6] = Hepatotoxicity in Balb/c mouse infected with Trypanosoma cruzi MHOM/Pe/2011/Arequipa DTU 5 trypomastigotes assessed as decrease in total bilirubin level at 20 mg/kg, po once daily for 5 consecutive days starting from day 75 post infection measured on day 127 post infection relative to control; assay type: toxicity, organism-based; design: scale not given: the % may be the effect or the level left; details: in vivo
Trypanosoma cruzi [7] = assay: Inhibition of Trypanosoma cruzi MHOM/Pe/2011/Arequipa DTU 5 epimastigotes Fe-SOD at 100 uM by UV-Visible spectrophotometric method relative to control
[8] = Nephrotoxicity in Balb/c mouse infected with Trypanosoma cruzi MHOM/Pe/2011/Arequipa DTU 5 trypomastigotes assessed as decrease in serum urea level at 20 mg/kg, po once daily for 5 consecutive days starting from day 10 post infection measured on day 127 post infection relative to control; assay type: toxicity, organism-based; design: scale not given: the % may be the effect or the level left; details: in vivo
[9] = (§2) Hepatotoxicity in Balb/c mouse infected with Trypanosoma cruzi MHOM/Pe/2011/Arequipa DTU 5 trypomastigotes assessed as increase in ratio of serum AST to GOT level at 20 mg/kg, po once daily for 5 consecutive days starting from day 75 post infection measured on day 81 post infection by biochemical analysis relative to control; assay type: toxicity, organism-based; details: in vivo
[10] = as §2, with “ALT” for “AST”, “GPT” for “GOT”, “infection” for “infection by biochemical analysis”; assay type: toxicity, organism-based; details: in vivo
[11] = Hepatotoxicity in Balb/c mouse infected with Trypanosoma cruzi MHOM/Pe/2011/Arequipa DTU 5 trypomastigotes assessed as increase in total bilirubin level at 20 mg/kg, po once daily for 5 consecutive days starting from day 75 post infection measured on day 127 post infection relative to control; assay type: toxicity, organism-based; details: in vivo
Trypanosoma cruzi [12] = assay: (§3) Antitrypanosomal activity against Trypanosoma cruzi MHOM/Pe/2011/Arequipa DTU 5 trypomastigotes infected in Balb/c mouse assessed as parasite-free brain at 20 mg/kg, po pretreated once daily for 5 consecutive days starting from day 75 post infection followed by cyclophosphamide-induced immunosuppression on day 100 post infection every 4 days for a maximum of 3 doses measured on day 127 post infection by PCR method; assay type: functional, organism-based
Trypanosoma cruzi [13] = assay: as §3, with “oesophagus” for “brain”; assay type: functional, organism-based
Trypanosoma cruzi [14] = assay: as §3, with “heart” for “brain”; assay type: functional, organism-based
Trypanosoma cruzi [15] = assay: as §3, with “lungs” for “brain”; assay type: functional, organism-based
Trypanosoma cruzi [16] = assay: as §3, with “spleen” for “brain”; assay type: functional, organism-based
[17] = Cardiotoxicity in Balb/c mouse infected with Trypanosoma cruzi MHOM/Pe/2011/Arequipa DTU 5 trypomastigotes assessed as decrease in ratio of creatine kinase in muscle to brain at 20 mg/kg, po once daily for 5 consecutive days starting from day 10 post infection measured on day 16 post infection by biochemical analysis relative to control; assay type: toxicity, organism-based; design: scale not given: the % may be the effect or the level left; details: in vivo
[18] = as §1, with “75” for “10”, “127” for “16”; assay type: toxicity, organism-based; design: scale not given: the % may be the effect or the level left; details: in vivo
[19] = (§4) Hepatotoxicity in Balb/c mouse infected with Trypanosoma cruzi MHOM/Pe/2011/Arequipa DTU 5 trypomastigotes assessed as change in total bilirubin level at 20 mg/kg, po once daily for 5 consecutive days starting from day 75 post infection measured on day 81 post infection (reference value: 0.25 mg/dl); assay type: toxicity, organism-based; details: in vivo
[20] = Hepatotoxicity in Balb/c mouse infected with Trypanosoma cruzi MHOM/Pe/2011/Arequipa DTU 5 trypomastigotes assessed as decrease in alkaline phosphatase level at 20 mg/kg, po once daily for 5 consecutive days starting from day 10 post infection measured on day 127 post infection by biochemical analysis relative to control; assay type: toxicity, organism-based; design: scale not given: the % may be the effect or the level left; details: in vivo
[21] = as §4, with “alkaline phosphatase” for “total bilirubin”, “167 U/L)” for “0.25 mg/dl)”; assay type: toxicity, organism-based; details: in vivo

## Cl.Cl.Cl.Cl.Cl.Cl.c1ccc2nc(CNCCN(CCNCc3ccc4ccccc4n3)CCNCc3ccc4ccccc4n3)ccc2c1
Trypanosoma cruzi [1]
  Activity: 0%
[2]
  Activity: 751 U/L
[3]
  Activity: 6679 U/L
[4]
  Activity: <= 10%
[5]
  Activity: <= 10%
[6]
  Activity: <= 10%
Trypanosoma cruzi [7]
  inhibition: 100%

## O=C(Cn1ccnc1[N+](=O)[O-])NCc1ccccc1 [BENZNIDAZOLE]
[8]
  Activity: <= 10%
[9]
  Activity: <= 20%
[10]
  Activity: <= 20%
[11]
  Activity: <= 20%

## Cl.Cl.Cl.NCCN(CCN)CCNCc1ccc2c(c1)Cc1ccccc1-2
Trypanosoma cruzi [12]
  Activity: Active
Trypanosoma cruzi [13]
  Activity: Active
Trypanosoma cruzi [14]
  Activity: Active
Trypanosoma cruzi [15]
  Activity: Active
Trypanosoma cruzi [16]
  Activity: Active
[17]
  Activity: <= 10%
[18]
  Activity: <= 10%
[19]
  Activity: 0.25 mg/dL
[20]
  Activity: <= 10%
[21]
  Activity: 167 U/L
